Assay results as given in US20240307372A1, “COMPOSITIONS AND METHODS TO IMPROVE BENEFIT OF SUBOPTIMALLY ADMINISTERED THERAPEUCTICS FOR THE TREATMENT OF BENIGN AND NEOPLASTIC DISEASES, INFECTIONS, INFLAMMATORY, METABOLIC AND IMMUNOLOGIAL DISEASES” (priority 2023, published 2024).
Where “and” joins values, the source holds several entries; their conditions need not be identical. Equal values may be shown once.

Columns and labels:
CAMKII gamma = biological target: T1, CAMKII gamma (Homo sapiens, UniProt Q13555); experiment: CAMKII gamma kinase activity, ADP Glo (Promega); format: biochemical; details: for CAMKII gamma kinase activity inhibition (in words): 10 or 50 uM ATP
T1 construct: purchased Promega V3531
Method: An enzymatic study was conducted to evaluate the inhibition of CAMKII gamma by ES-3000 (Tetrandrine). CAMKII gamma kinase activity was measured using […] purchased from Promega following the Promega protocol. CAMKII enzyme system purchased from Promega (V3531). ADP Glo was used for detection. Assay optimized for linearity of protein and time. Conditions for inhibitor screening 25 ng CAMKII, 20 min. incubations, inhibitor or DMSO (5%) at RT in 20 uL total volume. Inhibitor, ATP (10 or 50 uM), substrates and buffer added to tubes and reactions started with enzyme. […] Reactions terminated at 20 min. by adding ADP Glo reaction following manufactures instructions. All reactions were done in duplicate. Calculations of percent (%) inhibition determined by dividing the mean activity at each condition by the mean of the DMSO control times 100.

[1] = test system: CML colonies (secondary clonal growth); experiment: Replating assay, secondary clonal growth of CML colonies; format: cell-based, human; details: colonies from original cultures with ES-3000 @10 μM
β-catenin = β-catenin protein level in K562 cell extracts by western blot; format: cell-based, human; details: for β-catenin level in K562 cells: 0.1-40 μM, 24 hours
Method: The second portion was to quantitate the levels of β-catenin protein by western blot. TET's ability in an in vitro assay to reduce β-catenin expression was tested in human erythroleukemic (K562) cells. Testing was conducted by Alamo Laboratories, San Antonia, TX.
(§1) Briefly, the method to quantitate β-catenin protein by western blot was as follows: Extracts of K562 cells (untreated and treated with various concentrations of tetrandrine) were concentrated to 0.4 ml using Centricon-3 column to yield a protein concentration of approximately 2 mg/ml. Samples were mixed with 5× Laemmli buffer and loaded on 8-16% Tris-Glycine gradient gel, then polyacrylamide gel electrophoresis (PAGE) was run at 85 volts for 100 minutes at 6° C. and proteins were transferred on PVDF membrane at 70 Volts for 85 minutes at 8° C. Membrane was blocked with 5% milk in Tris-buffered Saline containing 0.1% TW-20 (TBST). Membrane was incubated with primary antibody for 18 hours at 4° C. followed by 3 washes, 5 minutes each, with TBST and incubated with secondary antibody in TBST for 2 hours at 25° C. The membrane was washed again with TBST as described above and incubated with ECL-2 substrate for 5 minutes and scanned on Kodak Image Station. After scan, blot was stripped of primary and secondary antibodies and re-probed with anti-beta Actin antibody as described above. Protein bands in WB images were quantitated using Molecular Imaging software pack MIS-4.0 software and tabulated in Excel spreadsheet.

beta-Actin = beta-Actin level in K562 cell extracts by western blot; format: cell-based, human; details: K562 cells treated with up to 40 uM
Method: as §1

[2] = test system: human breast, colon carcinoma, and hepatoma cell lines; details: read-out: IC50 range; cited from earlier work
bcr-abl = experiment: TaqMan qPCR assay for bcr-abl and abl in plucked CML colonies; format: cell-based, human; details: 10 μM
Method: To determine whether a colony was normal (bcr-abl negative and abl positive) or diseased (bcr-abl and abl positive), a TaqMan®-based qPCR test was used. In order to score the colonies positive or negative, the following scoring strategy was performed. All colonies were assayed in duplicate for each target. If a singleton reaction yielded a Ct then the reaction scored a 1. If no Ct was recorded, a score of 0 was given. From here, we used a logic test to score the colonies into four different categories: bcr-abl and abl, abl only, bcr-abl only or both negative. In order to be placed in a category, a colony must score a 1 in both reactions. However, if a colony only scored a 1 for one out of the two reactions, this colony was removed from the analysis. If a colony scored a 1 for each reaction (both ber-abl and abl) the colony was placed into the ber-abl and abl category, signifying it as a diseased colony. Alternatively, if a colony scored a 1 in only both of the ber-abl reactions or a 1 in only both the abl reactions, the colony was placed in the ber-abl only or abl only category, respectively. If the colony scored a 0 for both targets (bcr-abl and abl) then the colony was placed in the both negative category.
In total 48 primary colonies and 31 secondary replated colonies were assessed for bcr-abl and abl using qPCR. […] Thirteen secondary colonies treated with Tetrandrine at 10 μM were assessed.

[3] = test system: colorectal (CT-26) xenografts; details: colorectal (CT-26) mouse xenografts; cited from earlier work
[4] = test system: leukemic cells and leukemic stem cells; experiment: BCR-ABL CML mouse model (bone marrow transplantation), oral treatment; format: in vivo; details: mice, orally, 150 mg/kg, 1×/day
Method: In an in vivo model, the effectiveness of Tetrandrine was tested on CML stem cells. The objective of the study was to determine the survival of leukemic cells and leukemic stem cells in response to the treatment with Tetrandrine. After priming donor C57BL/6 (B6) mice with intravenous injections of 5-fluorouracil for four days, bone marrow cells were harvested from femurs and tibia, then transfected twice with retrovirus containing MSCV-BCR-ABL-IRES-GFP. Recipient mice were lethally irradiated by two doses of 550 cGy before bone marrow transplantation by intravenous injection with 5×10^5 cells/mouse. Blood from recipient mice was tested for disease induction one week after transduction by FACS analysis for GFP (FIG. 7A). […] Treatments started on day 8 after bone marrow transplantation (FIG. 7B).

[5] = Primary colonies, of 17 colonies
[6] = Secondary colonies, of 10 colonies

T1 sequence (Q13555 whole entry): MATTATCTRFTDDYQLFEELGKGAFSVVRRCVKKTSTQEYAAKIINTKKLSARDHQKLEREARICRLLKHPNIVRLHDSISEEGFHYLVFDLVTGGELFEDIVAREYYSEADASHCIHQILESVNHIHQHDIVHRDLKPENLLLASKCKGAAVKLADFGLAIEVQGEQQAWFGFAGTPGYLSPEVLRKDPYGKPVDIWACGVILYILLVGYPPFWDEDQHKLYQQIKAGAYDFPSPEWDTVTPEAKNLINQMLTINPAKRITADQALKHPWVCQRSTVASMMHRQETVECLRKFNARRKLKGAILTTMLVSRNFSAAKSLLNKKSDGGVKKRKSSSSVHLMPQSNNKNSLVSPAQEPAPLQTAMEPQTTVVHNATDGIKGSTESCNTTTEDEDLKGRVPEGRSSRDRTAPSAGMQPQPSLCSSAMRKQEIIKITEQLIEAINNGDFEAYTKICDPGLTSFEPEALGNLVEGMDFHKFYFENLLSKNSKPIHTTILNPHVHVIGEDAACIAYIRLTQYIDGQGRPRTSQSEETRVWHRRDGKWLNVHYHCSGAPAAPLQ

6,6′,7,12-tetramethoxy-2,2′-dimethyl-berbaman [ES-3000]
% inhibition (CAMKII gamma; 30 uM, 10 uM ATP): 29.1% and 29%
CamKIIγ activity, mean (CAMKII gamma; 30 uM, 10 uM ATP): 3.09 units
CamKIIγ activity, units (duplicates) (CAMKII gamma; 30 uM, 10 uM ATP): 2.75 units and 3.43 units
kinase activity, % of DMSO control (CAMKII gamma; 30 uM, 10 uM ATP): 71%
% inhibition (CAMKII gamma; 30 uM, 50 uM ATP): 15%
CamKIIγ activity, mean (CAMKII gamma; 30 uM, 50 uM ATP): 10.55 units
CamKIIγ activity, units (duplicates) (CAMKII gamma; 30 uM, 50 uM ATP): 10.4 units and 10.7 units
kinase activity, % of DMSO control (CAMKII gamma; 30 uM, 50 uM ATP): 85%
% inhibition (CAMKII gamma; 100 uM, 10 uM ATP): 34.2% and 34%
CamKIIγ activity, mean (CAMKII gamma; 100 uM, 10 uM ATP): 2.87 units
CamKIIγ activity, units (duplicates) (CAMKII gamma; 100 uM, 10 uM ATP): 2.5 units and 3.24 units
kinase activity, % of DMSO control (CAMKII gamma; 100 uM, 10 uM ATP): 66%
% inhibition (CAMKII gamma; 100 uM, 50 uM ATP): 36%
CamKIIγ activity, mean (CAMKII gamma; 100 uM, 50 uM ATP): 7.955 units
CamKIIγ activity, units (duplicates) (CAMKII gamma; 100 uM, 50 uM ATP): 8.81 units and 7.1 units
kinase activity, % of DMSO control (CAMKII gamma; 100 uM, 50 uM ATP): 64%
% inhibition (CAMKII gamma; 250 uM, 10 uM ATP): 90.6% and 91%
CamKIIγ activity, mean (CAMKII gamma; 250 uM, 10 uM ATP): 0.41 units
CamKIIγ activity, units (duplicates) (CAMKII gamma; 250 uM, 10 uM ATP): 0.34 units and 0.48 units
kinase activity, % of DMSO control (CAMKII gamma; 250 uM, 10 uM ATP): 9%
CAMKII gamma kinase activity inhibition (in words) (CAMKII gamma): inhibited CAMKII gamma kinase activity in a dose dependent manner
CAMKII gamma kinase activity inhibition (in words) (CAMKII gamma; listed as TET): inhibited the activation of CaMKIIγ in a dose dependent manner
average CFC per well (secondary growth) [1]: three
wells supported secondary growth with one or more colony [1]: 54.2%
β-catenin level in K562 cells (β-catenin; listed as TET): reduced β-catenin
β-catenin level in K562 cells (β-catenin; listed as Tetrandrine): lowers the β-catenin level in K562 cells in a dose dependent manner
β-catenin band in western blot (β-catenin; K562 cells treated with 0 to 10 uM): A clear β-catenin band was evident
β-catenin band in western blot (β-catenin; K562 cells treated with 20 and 40 uM): a convincing β-catenin band was absent
beta-catenin level (quantitation of protein bands) (β-catenin; K562 cells treated with >10 uM): significantly less
beta-Actin level (quantitation of protein bands) (beta-Actin): not affected significantly
IC50 [2]: 1.53 to 10.4 µM
abl only colonies (bcr-abl; Primary colonies): 1
bcr-abl and abl colonies (bcr-abl; Primary colonies): 11
bcr-abl only colonies (bcr-abl; Primary colonies): 1
both negative colonies (bcr-abl; Primary colonies): 4
colonies abl positive only (bcr-abl; [5]): 5.8%
colonies bcr-abl and abl positive (bcr-abl; [5]): 65%
colonies negative for both targets (bcr-abl; [5]): 23.5%
colonies bcr-abl and abl positive (bcr-abl; Primary colonies, of 17 colonies, listed as Tetrandrine): 64.7%
abl only colonies (bcr-abl; Secondary colonies): 1
bcr-abl and abl colonies (bcr-abl; Secondary colonies): 0
bcr-abl only colonies (bcr-abl; Secondary colonies): 0
both negative colonies (bcr-abl; Secondary colonies): 9
colonies negative for both bcr-abl and abl (bcr-abl; [6]): 90%
colonies positive for abl only (bcr-abl; [6]): 10%
tumor growth [3]: reduced tumor growth by inducing apoptosis
inhibiting the development of circulating leukemic cells ([4]; listed as TET): reduced the development of leukemic cells in the peripheral blood
inhibiting the development of leukemic stem cells ([4]; listed as TET): reduced the development of
inhibiting the development of circulating leukemic cells ([4]; listed as Tetrandrine): superior to Imatinib
inhibiting the development of leukemic stem cells ([4]; listed as Tetrandrine): superior to Imatinib
